Measured values reported in a melting point compilation (Tetko et al.).

melting point	Structure (SMILES)
65 to 69 °C	O=C1CCC2C3CCC(=O)C3C12 (centres undefined)
95 to 97 °C	OCc1ncoc1-c1ccccc1
182 to 192 °C	COc1cc(OC(C)=O)c2c(=O)c(OC(C)=O)c(-c3ccc(OCc4ccccc4)c(OC(C)=O)c3)oc2c1
178 to 182 °C	O=C(O)c1cccc(I)c1C(=O)O
121 °C	O=C1/C(=C/c2ccccc2)SC(=S)N1CN1CCOCC1
81 °C	O=Cc1cccc(Br)n1
88 °C	Cc1cnc(N)c(I)c1
76 °C	CC1CCC(C(C)C)C(OC(=O)c2ccc3ccccc3c2)C1 (centres undefined)
-20 °C	CCCCOC(=O)CC(O)(CC(=O)OCCCC)C(=O)OCCCC
101 to 104 °C	O=C(O)Cc1ccc(C(=O)CCl)s1
120 °C	OC(CCN1CCCCC1)(c1ccccc1)c1ccccc1
72 to 73 °C	COc1ccc2c(c1C)CC2=O
132 °C	CC(=O)/C(=C/Nc1ccccc1)Cc1ccccc1
55.8 °C	CC1CC(O)CC(C)(C)C1 (centres undefined)
132 to 133 °C	c1n[nH]c2c1CSC2
189 °C	CC(=O)N1C(=O)/C(=C(\C#Cc2ccccc2)C(=O)c2ccccc2)c2ccccc21
40 °C	CCCCCCCCCCNCCCCCCCCCC
286 to 291 °C	CC(C)(C)OC(=O)N1Cc2[nH]c3ccccc3c2C[C@H]1C(=O)O
245 °C	O=Nc1ccc(O)c2ncccc12
131 to 133 °C	COc1cc([N+](=O)[O-])c(Cl)cc1N
169 to 170 °C	CCOC(=O)c1c(C)oc(NC(=O)Nc2ccc(Cl)cc2)c1C(=O)OCC
30 °C	CCCCCCCCCCCCCCCCC(=O)OC

melting point	Structure (SMILES)
51 °C	Cc1ccc([N+](=O)[O-])cc1N=C=O
147 °C	COc1ccccc1-c1ccc(C=C2C(=O)OC(C)(C)OC2=O)o1
165 to 168 °C	CN(C)c1ccc(C=CC#N)cc1
236 °C	O=C(COc1ccc(Cl)cc1)Nc1nc2ccc(Br)cc2s1
161 °C	O=[N+]([O-])c1ccc2c3c(ccc(C(Cl)=Cc4ccccc4)c13)CC2
230 °C	O=C(Nc1ccc([N+](=O)[O-])cc1Cl)c1cc(Cl)ccc1O
140 °C	Oc1ccc(O)c(O)c1
244 to 245 °C	O=C(O)c1cccc(-c2cncnc2)c1
188 °C	Cc1cccc(NC(=O)C(C(F)(F)F)(C(F)(F)F)C(F)(F)F)c1
45 to 47 °C	COc1cccc(OC)c1N=C=O
64 to 68 °C	Nc1cc(S(=O)(=O)F)ccc1Cl
94 to 96 °C	CC(=O)CCc1c[nH]c2ccccc12
64 to 66 °C	CCOC(=O)C1CCN(c2ncnc3ccsc23)CC1
61 °C	Nc1ncccc1Cl
86 to 88 °C	O=C(Cl)c1cc(-c2ccccc2)on1
26 °C	ClCC(Cl)(Cl)C(Cl)(Cl)Cl
324 °C	O=S(=O)(O)CCCNC1CCCCC1
110 °C	COc1ccc2c(=O)c(C)c(-c3ccccc3)oc2c1CN(C)C
39 °C	O=S(=O)(N(c1ccccn1)S(=O)(=O)C(F)(F)F)C(F)(F)F
203 °C	Clc1cccc(Cl)c1-c1nnn[nH]1
-16 °C	FC(F)(F)C(F)(F)C(F)(F)C(F)(F)C(F)(F)C(F)(F)C(F)(F)C(F)(F)C(F)(F)F
73 to 77 °C	c1ccc(Oc2ccc(Oc3ccccc3)cc2)cc1

melting point	Structure (SMILES)
141 °C	NC(=O)c1ccc(Cl)c(Cl)c1
255 to 257 °C	COc1ccc(C=NN=C2NC(=O)C(=Cc3ccccc3)S2)cc1
166 to 167 °C	COC(=O)c1ccc(N2CCN(C(=O)OC(C)(C)C)CC2)cc1
212 to 213 °C	COc1ccc(-n2ncc(C(=O)O)c2C)cc1
170 °C	Cc1ccc(-c2nc(C(=O)O)cs2)cc1
41 °C	CCOC(=O)c1cncc(Br)c1
120 °C	CCOC(=O)C=Cc1c[nH]c2ccccc12
191 to 194 °C	COc1ccc(-c2cc(C(F)(F)F)nc(N)n2)cc1
138 °C	O=C(c1ccco1)c1noc(-c2ccc([N+](=O)[O-])cc2)c1S(=O)(=O)c1ccccc1
305 to 307 °C	CSc1c(C#N)c(N)nc2c(/N=N/c3ccc(C(=O)O)cc3)c(N)nn12
104 °C	c1ccc2c(c1)nnn2C1CCCCC1
80 to 83 °C	CCOC(=O)c1cn2ccccc2n1
192 to 196 °C	CC(=O)c1ccc(-c2ccc(C(C)=O)cc2)cc1
8.1 °C	COc1ccc(OC)c(Cl)c1
94 to 98 °C	O=C(c1ccc(C(F)(F)F)cc1)c1cccc(C(F)(F)F)c1
95 °C	Cc1ccc(S(=O)c2ccc(C)cc2)cc1
55 °C	CC(C)(C)C(CO)CO
30 °C	CC(=O)c1cc(OC(F)(F)F)ccc1O
208 to 210 °C	CC1(C)C(N)=[N+]([O-])C(c2ccccc2)N1O (centres undefined)
78 to 81 °C	COC(=O)CSCCC(N)=S
106 °C	CC(C)(C)OC(=O)n1cc(CBr)c2ccccc21
129 °C	COc1ccc(C(O)C(O)c2ccccc2)cc1 (centres undefined)

melting point	Structure (SMILES)
-31.4 °C	N#CCCCCCN
166 °C	O=C(O)c1cc(Cl)cc(Cl)c1Cl
110 °C	O=C(CCc1ccc(O)cc1)c1c(O)cc(O)cc1OC1OC(CO)C(O)C(O)C1O (centres undefined)
92 to 95 °C	O=C(O)c1ccccc1-c1cccs1
72 °C	OCc1ccccc1-c1ccco1
70 to 72 °C	O=CC(F)(F)C(F)(F)C(F)(F)C(F)(F)C(F)(F)C(F)(F)C(F)(F)C(F)(F)C(F)(F)C(F)(F)F
158 °C	CC(C)S(=O)(=O)c1csc(C(=O)O)c1N
320 °C	O=S(=O)(O)CCNC1CCCCC1
195 to 200 °C	O=C(O)C1=CC(Cl)=C(Cl)[C@H](O)[C@@H]1O
56 to 60 °C	Cn1nc(CO)cc1-c1cccs1
79 to 84 °C	O=S(=O)(Cl)c1cc(S(=O)(=O)Cl)c(Cl)s1
192 °C	CC(=O)NC(=Cc1ccccc1)C(=O)O
275 to 278 °C	NC1C2CCC(C2)C1C(=O)O (centres undefined)
182 °C	CC(C(=O)O)C(O)(c1ccccc1)c1ccccc1 (centres undefined)
151 to 154 °C	CCOC(=O)c1cc(O)c(O)c(O)c1
109 °C	Cc1cccc(Br)c1C(=O)O
234 °C	NC(=O)CC(N)C(=O)O (centres undefined)
81 to 82 °C	COC(=O)c1ccc(C(=O)OC)c(I)c1
-16 °C	CC(C)c1cccc2ccccc12
184 to 187 °C	Cc1cc(C(=O)O)c(C)n1Cc1cccs1
183 °C	Cc1oc(-c2ccccc2)cc1C(=O)O
146 °C	CCCCCCCOc1ccc(C(=O)O)cc1

melting point	Structure (SMILES)
55.5 to 59.5 °C	O=C(Oc1c(F)c(F)c(F)c(F)c1F)c1sccc1C1OCCO1
35 °C	COc1ccc(C=O)cc1F
106 to 107 °C	O=C1c2ccccc2C(=O)C1(Br)c1ccccc1
53.5 °C	CCOC(=O)C1(S(=O)(=O)c2ccc(C)cc2)CCC1
135 °C	Cc1cc(Cc2cc(C)cc(C3(C)CCCCC3)c2O)c(O)c(C2(C)CCCCC2)c1
55 to 56 °C	O=S(=O)(Cl)Cc1ccccc1F
132 °C	COC(=O)C=Cc1cccc(C=CC(=O)OC)c1
265 °C	O=C(O)c1cc2cccc([N+](=O)[O-])c2[nH]1
-40 °C	C1CCC2OC2C1 (centres undefined)
234 to 236 °C	CS(=O)(=O)c1csc(C(=O)O)c1Cl
-94 °C	CCCCCSC
165 °C	Cc1ccc(-c2cccc(-c3ccc(C)cc3)n2)cc1
-7.6 °C	CN(c1ccccc1)c1ccccc1
239 to 240 °C	O=C1/C(=N\Nc2ccccc2)C(c2ccc([N+](=O)[O-])cc2)=NN1c1ccccc1
211 °C	Cc1cc2c(cc1C)C(=O)c1ccccc1C2=O
154 °C	CC(=O)Nc1ccc(N)cn1
78 °C	Fc1cc2nsnc2cc1Cl
73 °C	Nc1ccc2cc[nH]c2c1
44 to 46 °C	Nc1ccccc1-n1cccn1
85 °C	CC(=O)CC(=O)c1cccnc1
111 °C	CC(C)c1cc(C(C)C)c(S(=O)(=O)n2cncn2)c(C(C)C)c1

Structure (SMILES)	melting point
COc1ccc2c(c1OC)C(=O)OC2C1c2cc3c(cc2CCN1C)OCO3 (centres undefined)	132 °C
N#CC(OC1OC(COC2OC(CO)C(O)C(O)C2O)C(O)C(O)C1O)c1ccccc1 (centres undefined)	224 °C
CCCCCCCF	-73 °C
CC12CCC(O)CC1CCC1C2C(O)CC2(C)C(c3ccc(=O)oc3)CCC12O (centres undefined)	254 °C
CCOc1cc2c(cc1OC)CCNC2CC(C)C (centres undefined)	151 °C
O=S(=O)(Oc1ccc(Cl)cc1)c1ccc(Cl)cc1	86.5 °C
O=C=Nc1cccc2ccccc12	4 °C
Cc1c(F)c(F)c(COC(=O)C2C(C=C(Cl)C(F)(F)F)C2(C)C)c(F)c1F (centres undefined)	44.6 °C
CCN(CC)C(=S)SC(=S)N(CC)CC	31 °C
COc1coc(CSP(=O)(OC)OC)cc1=O	96 °C
O=C(O)C(=O)CBr	79 to 82 °C
CC12CCC(=O)CC1CCC1C2CCC2(C)C1CCC2(C)O (centres undefined)	192 °C
CCOC(=O)C(SP(=S)(OC)OC)c1ccccc1 (centres undefined)	17.5 °C
ClC(Cl)N(C(Cl)Cl)C(Cl)Cl	170 to 173 °C
CN1CSC(=S)N(C)C1	106 °C
COP(=S)(OC)Oc1ccc([N+](=O)[O-])c(Cl)c1	21 °C
CN(C)c1ccc(C=C2C(=O)NC(=O)NC2=O)cc1	245 °C
CC(=O)OC1C(c2ccc(=O)oc2)C2(C)CCC3C(CCC4(O)CC(O)CCC34C)C23OC13 (centres undefined)	260 °C
CC(=O)C1CCC2C3CCC4CC(=O)CCC4(C)C3CCC12C (centres undefined)	200 °C
Cc1cc(C2CC2)nc(Nc2ccccc2)n1	75.9 °C
